Measured values: paper PMC5011342, “A high throughput drug screening assay to identify compounds that promote oligodendrocyte differentiation using acutely dissociated and purified oligodendrocyte precursor cells” (BMC Research Notes, 2016)
Where two headings read alike, the source gives them in different places.

What was measured:
[1] = tested on: acutely dissociated and purified rat OPCs; experiment: Acute OL differentiation assay (MBP expression/cell, immunofluorescent image quantification); type: cell-based; details: Rattus norvegicus
Summary of the method: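 Oligodendrocyte precursor cells were enriched from P6-P7 Sprague–Dawley rat brains by immunopanning (RAN-2 and GalC depletion, O4 selection), plated at 5000 cells/well in serum-free, mitogen-free differentiation media on PDL/laminin 96-well view plates, centrifuged at 200×g, and pre-incubated 1–2 h before test compounds were added in quadruplicate. On DIV4, cells were fixed, stained for MBP and DAPI, imaged automatically, and MBP expression per cell was quantified.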

[2] = tested on: expanded OPCs; experiment: cells; details: for 0.1 µM (% DMSO) / 1 µM (% DMSO) / 10 µM (% DMSO): alamarBlue viability of expanded OPCs, relative to DMSO control; for 0.1 µM (% DMSO): compound at 0.1 µM; for 1 µM (% DMSO): compound at 1 µM; for 10 µM (% DMSO): compound at 10 µM; for viability at 0.1 µM / viability at 1 µM / viability at 10 µM: Rattus norvegicus, 72 h
Summary of the method: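 Expanded OPCs seeded at 10,000 cells/well in differentiation media, then exposed to NCC library compounds at 10, 1 and 0.1 µM (quadruplicate, 0.1% DMSO) for three days. Viability read as alamarBlue fluorescence (560/590 nm) after 4 h at 37 °C; tunicamycin 5 ng/ml served as toxicity control.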

[3] = test compound at 2 uM, NCC library screen, sheet "All OLga data", relative to quetiapine, read-out: 2 uM (% Quet)
[4] = test compound at 10 uM, NCC library screen, sheet "All OLga data", relative to quetiapine, read-out: 10 uM (% Quet)
[5] = read-out: 0.1 µM (% DMSO), alamarBlue viability, NCC library compound at 0.1 µM, sheet "All Tox data"
[6] = read-out: 1 µM (% DMSO), alamarBlue viability, NCC library compound at 1 µM, sheet "All Tox data"
[7] = read-out: 10 µM (% DMSO), alamarBlue viability, NCC library compound at 10 µM, sheet "All Tox data"
[8] = 2 uM test compound, relative to quetiapine, sheet "All OLga data", read-out: OL differentiation, 2 uM (% Quet)
[9] = 10 uM test compound, relative to quetiapine, sheet "All OLga data", read-out: OL differentiation, 10 uM (% Quet)
[10] = read-out: 0.1 µM (% DMSO), alamarBlue viability of expanded OPCs, compound at 0.1 µM, sheet All Tox data
[11] = read-out: 1 µM (% DMSO), alamarBlue viability of expanded OPCs, compound at 1 µM, sheet All Tox data
[12] = read-out: 10 µM (% DMSO), alamarBlue viability of expanded OPCs, compound at 10 µM, sheet All Tox data

| SMILES | activation at 2 µM [1, 3] [%] | activation at 10 µM [1, 4] [%] | activation at 2 µM [1, 8] [%] | activation at 10 µM [1, 9] [%] | viability at 0.1 µM [2, 10] [%] | viability at 1 µM [2, 11] [%] | viability at 10 µM [2, 12] [%] | also measured |
| --- | --- | --- | --- | --- | --- | --- | --- | --- |
| O=C(O)CCCc1ccccc1 [4-Phenylbutyric acid] | 9 | -4.1 |  |  |  |  |  | 0.1 µM (% DMSO) [2]: 90.4 % DMSO; 1 µM (% DMSO) [2]: 91.7 % DMSO; 10 µM (% DMSO) [2]: 104.6 % DMSO |
| O=C1c2cccc3c2[C@H](CCC3)CN1[C@@H]1CN2CCC1CC2 [Palonosetron] | 13.3 | 29.7 |  |  |  |  |  | viability at 0.1 µM [2, 5]: 93%; viability at 1 µM [2, 6]: 92.4%; viability at 10 µM [2, 7]: 72.1% |
| CC[C@@H]1C(=O)OC[C@@H]1Cc1cncn1C [Pilocarpine] |  |  | 0.3 | 6.6 | 90.2 | 101 | 90.1 |  |
| CC(C)(O)[C@@H]1[C@H]2OC(=O)[C@@H]1[C@]1(O)C[C@H]3O[C@]34C(=O)O[C@H]2[C@]14C [Picrotin] |  |  | 6.5 | 5.9 | 84.8 | 84.6 | 85.6 |  |
| OC[C@H]1O[C@@H](Oc2cc(O)cc(/C=C/c3ccc(O)cc3)c2)[C@H](O)[C@@H](O)[C@@H]1O [Polydatin] |  |  | -15 | -20.9 | 106 | 110 | 113 |  |
| Nc1ncnc2c1ncn2[C@@H]1O[C@H](CO)[C@@H](O)[C@@H]1O [Vidarabine] | -12.9 |  |  |  |  |  |  | activation at 0.4 µM ([1]; test compound at 0.4 uM, NCC library screen, sheet "All OLga data", relative to quetiapine, read-out: 0.4 uM (% Quet)): -2.3%; viability at 0.1 µM [2, 5]: 90.6%; viability at 1 µM [2, 6]: 84.9%; viability at 10 µM [2, 7]: 48.9% |
| CC(=O)Nc1ccc(CC(=O)O)cc1 [Actarit] |  |  | 4.4 | -11.3 | 96.4 | 104 | 102 |  |
| COc1cc(CNC(=O)CCCC/C=C\C(C)C)ccc1O [Zucapsaicin] |  |  | -17 |  | 85.6 | 72 | 36.9 | activation at 0.4 µM ([1]; 0.4 uM test compound, relative to quetiapine, sheet "All OLga data", read-out: OL differentiation, 0.4 uM (% Quet)): 13.2% |
| NC1=NC(=O)C(c2ccccc2)O1 (centres unmarked) [Pemoline] |  |  | -15.2 | -10.6 | 96 | 104 | 101 |  |
| Cc1nnc2n1-c1ccc(Cl)cc1C(c1ccccc1)=NC2 [Alprazolam] |  |  | -12.2 | -116 | 102 | 115 | 139 |  |
| Cc1ccc(N(CC2=NCCN2)c2cccc(O)c2)cc1 [Phentolamine] |  |  |  |  |  |  |  | activation at 2 µM ([1]; test compound at 2 uM, MBP expression relative to quetiapine, NCC library screen, sheet "All OLga data", read-out: 2 uM (% Quet)): -17.9%; activation at 10 µM ([1]; test compound at 10 uM, MBP expression relative to quetiapine, NCC library screen, sheet "All OLga data", read-out: 10 uM (% Quet)): -82.7%; 0.1 µM (% DMSO) [2]: 93.8 % DMSO; 1 µM (% DMSO) [2]: 88.6 % DMSO; 10 µM (% DMSO) [2]: 62.0 % DMSO |
| O=C(O)CCNC(=O)c1ccc(/N=N/c2ccc(O)c(C(=O)O)c2)cc1 [Balsalazide] | 10.7 | 19.1 |  |  |  |  |  | viability at 0.1 µM [2, 5]: 88.1%; viability at 1 µM [2, 6]: 92%; viability at 10 µM [2, 7]: 85.1% |
| CN1C(=O)CN=C(c2ccccc2)c2cc(Cl)ccc21 [Diazepam] |  |  |  |  |  |  |  | activation at 2 µM ([1]; read-out: 2 uM (% Quet)): 3.8%; activation at 10 µM ([1]; read-out: 10 uM (% Quet)): -14.1%; viability at 0.1 µM ([2]; read-out: 0.1 µM (% DMSO)): 92.5%; viability at 1 µM ([2]; read-out: 1 µM (% DMSO)): 97.2%; viability at 10 µM ([2]; read-out: 10 µM (% DMSO)): 102% |
| Cc1ncc([N+](=O)[O-])n1CC(C)O (centres unmarked) [Secnidazole] |  |  | 8.1 | 2.5 | 97.5 | 99.6 | 110 |  |
| CN(C)[C@@H]1C(O)=C(C(N)=O)C(=O)[C@@]2(O)C(O)=C3C(=O)c4c(O)cccc4C[C@H]3C[C@@H]12 [Sancycline] | 1.8 | 27.4 |  |  |  |  |  | 0.1 µM (% DMSO) [2]: 88.7 % DMSO; 1 µM (% DMSO) [2]: 89.0 % DMSO; 10 µM (% DMSO) [2]: 83.0 % DMSO |
| c1ccc2[nH]c(-c3cscn3)nc2c1 [Thiabendazole] | 14.9 | 36.7 |  |  |  |  |  | viability at 0.1 µM [2, 5]: 98%; viability at 1 µM [2, 6]: 97.1%; viability at 10 µM [2, 7]: 109% |
